{"source": "patent EP0359821A1", "about": "“METHOD OF STERILIZING PLANT ANTHERS” (priority 1988, dated 1989)", "key": {"[1]": {"tested_on": "Roggen Sorte Voskhod 2", "assay": "Field trial of gametocidal activity, diploid rye Voskhod 2", "format": "in vivo", "settings": "1% aqueous emulsion, 8 kg/ha"}, "[2]": {"tested_on": "Winterweizens Sorte Mironovskaya 808", "assay": "Field trial of gametocidal activity (anther sterilisation), winter wheat", "format": "in vivo, Weizen", "settings": "2% aqueous emulsion, 20 kg/ha; for response vs control in vivo at 20000 g/ha: control = 100, read-out: Prozentsatz des Ansetzens bei freier Bestäubung"}, "[3]": {"assay": "in vivo", "settings": "mouse"}, "[4]": {"tested_on": "Diploider Roggen Sorte Chulpan", "assay": "Field trial of gametocidal activity, diploid rye Chulpan", "format": "in vivo", "settings": "single compounds, 1% aqueous emulsion, 10 kg/ha; for response vs control in vivo at 10000 g/ha: read-out: Prozentsatz des Ansetzens bei freier Bestäubung, Chulpan", "from_the_text": "Bei Weizen und Tritikale werden Einzelisolatoren verwendet.\nPflanzen von diploidem Roggen Sorte Chulpan werden in der V. oder VI.\nDer Verbrauch an Sterilisationsmitteln beträgt 10 kg/ha."}, "[5]": {"tested_on": "Tetraploider Roggen Sorte Belta", "assay": "Field trial of gametocidal activity, tetraploid rye Belta", "format": "in vivo", "settings": "1% aqueous emulsion, 10 kg/ha; for response vs control in vivo at 10000 g/ha: control = 100, read-out: Prozentsatz des Ansetzens bei freier Bestäubung"}, "[6]": {"tested_on": "Sonnenblume Sorte Peredovik", "assay": "Field trial of pollen sterilisation, sunflower Peredovik", "format": "in vivo", "settings": "0,2% aqueous emulsion, 1,2 kg/ke (so in the source)", "from_the_text": "Pflanzen der Sonnenblume Sorte Peredovik werden in der V. oder VI.\nDer Verbrauch an Sterilisationsmittel beträgt 1,2 kg/ke."}, "[7]": {"tested_on": "Sonnenblume Linie VK 119", "assay": "Field trial of pollen sterilisation, sunflower line VK 119", "settings": "0,2% aqueous emulsion, 1,2 kg/ha"}, "[8]": {"tested_on": "Hirse Sorte K-9693 Kormovoe 1", "assay": "Field trial of gametocidal activity, millet K-9693 Kormovoe 1", "settings": "1% aqueous emulsion, 10 kg/ha"}, "[9]": {"tested_on": "Sommerweizen Sorte Moskovskaya 35", "assay": "Field trial of gametocidal activity, spring wheat", "format": "in vivo, Weizen", "settings": "1% aqueous emulsion, 10 kg/ha"}, "[10]": {"tested_on": "Diploider Roggen Sorte Kharkovskaya 55", "assay": "Field trial of gametocidal activity, diploid rye Kharkovskaya 55", "settings": "1% aqueous emulsion, 6 kg/ha"}, "[11]": {"settings": "V. or VI. period of organogenesis"}, "[12]": {"settings": "V. or VI. period of organogenesis, read-out: Prozentsatz der Sterilität"}, "[13]": {"settings": "Chulpan, V. or VI. period, listed as Beispiel 56"}, "[14]": {"settings": "V. or VI. period, listed as Beispiel 7I"}}}
{"molecule": "Äthanolaminsalz der Tetraphthalsäure [Beispiel 34]", "values": [{"measurement": "Anzahl von Körnern der Ähre bei freier Bestäubung", "setting": "[1]; V. or VI. period", "value": "54,0"}, {"measurement": "Anzahl von Körnern der Ähre im Isolator", "setting": "[1]; V. or VI. period", "value": "1,2"}, {"measurement": "Prozentsatz der Sterilität", "setting": "[1]; V. or VI. period", "value": "97,6%"}, {"measurement": "Prozentsatz des Ansetzens bei freier Bestäubung", "setting": "[1]; control = 100", "value": "98,9%"}]}
{"molecule": "O=C(COc1cc(F)c(Cl)cc1Cl)OCCCl", "note": "[Beispiel I0, β -Chloräthylester der 2,4-Dichlor-5-fluornhenoxyessig-säure]", "values": [{"measurement": "Anzahl von Körnern der Ähre im Isolator", "setting": "[2]; [11]", "value": "0,6"}, {"measurement": "response vs control in vivo at 20000 g/ha", "setting": "[2]", "value": 74.3, "unit": "%"}, {"measurement": "LD50", "setting": "[3]; LD50, weisse Mäuse", "value": 500, "unit": "mg/kg"}]}
{"molecule": "O=C(O)c1ccccc1F", "note": "[Beispiel I4, Monoäthanolaminsalz der Orthofluorbenzoesäure]", "values": [{"measurement": "Anzahl von Körnern der Ähre bei freier Bestäubung", "setting": "[2]; [11]", "value": "36,2"}, {"measurement": "Anzahl von Körnern der Ähre im Isolator", "setting": "[2]; [11]", "value": "5,3"}, {"measurement": "pest or weed control at 20000 g/ha", "setting": "[2]; [12]", "value": 85.9, "unit": "%"}, {"measurement": "response vs control in vivo at 20000 g/ha", "setting": "[2]", "value": 89.3, "unit": "%"}, {"measurement": "Anzahl von Körnern der Ähre bei freier Bestäubung", "setting": "[4]; [13]", "value": "56,2"}, {"measurement": "Anzahl von Körnern der Ähre im Isolator", "setting": "[4]; [13]", "value": "0,1"}, {"measurement": "Prozentsatz des Ansetzens bei freier Bestäubung", "setting": "[4]; Chulpan, control = 100, listed as Beispiel 56", "value": "99,1%"}, {"measurement": "Anzahl von Körnern der Ähre bei freier Bestäubung", "setting": "[5]; [14]", "value": "43,5"}, {"measurement": "Anzahl von Körnern der Ähre im Isolator", "setting": "[5]; [14]", "value": "0,0"}, {"measurement": "Prozentsatz des Ansetzens bei freier Bestäubung", "setting": "[5]; control = 100, listed as Beispiel 7I", "value": "98,2%"}, {"measurement": "LD50", "setting": "[3]; LD50, weisse Mäuse", "value": 700, "unit": "mg/kg"}]}
{"molecule": "OCCCl", "note": "[Beispiel 45, 2-Chloräthanol]", "values": [{"measurement": "Anzahl von Körnern der Ähre bei freier Bestäubung", "setting": "[4]; Chulpan, V. or VI. period", "value": "80,2"}, {"measurement": "Anzahl von Körnern der Ähre im Isolator", "setting": "[4]; Chulpan, V. or VI. period", "value": "2,2"}, {"measurement": "pest or weed control at 10000 g/ha", "setting": "[4]; read-out: Prozentsatz der Sterilität, Chulpan, V. or VI. period", "value": 95.8, "unit": "%"}, {"measurement": "response vs control in vivo at 10000 g/ha", "setting": "[4]; control = 100", "value": 88.5, "unit": "%"}, {"measurement": "Anzahl von Körnern der Ähre bei freier Bestäubung", "setting": "[5]; V. or VI. period", "value": "42,2"}, {"measurement": "Anzahl von Körnern der Ähre im Isolator", "setting": "[5]; V. or VI. period", "value": "0,0"}, {"measurement": "response vs control in vivo at 10000 g/ha", "setting": "[5]", "value": 95.3, "unit": "%"}, {"measurement": "Pollensterilität in %", "setting": "[6]", "value": 100, "unit": "%"}, {"measurement": "Ansetzen von Achänen bei freier Bestäubung in %", "setting": "[6]; V. or VI. period", "value": "83,9%"}, {"measurement": "Ansetzen von Achänen im Isolator bei der Bestäubung mit dem Pollengemisch in %", "setting": "[6]; V. or VI. period", "value": "0,0%"}, {"measurement": "LD50", "setting": "[3]", "value": 580, "unit": "mg/kg"}, {"measurement": "Ansetzen von Achänen bei freier Bestäubung in %", "setting": "[7]", "value": "83,5%"}, {"measurement": "Ansetzen von Achänen im Isolator bei der Bestäubung mit dem Pollengemisch in %", "setting": "[7]", "value": "0,0%"}, {"measurement": "Pollensterilität in %", "setting": "[7]", "value": 100, "unit": "%"}, {"measurement": "Anzahl von Körnern der Rispe bei freier Bestäubung", "setting": "[8]; V. or VI. period", "value": "130,5"}, {"measurement": "Anzahl von Körnern der Rispe im Isolator", "setting": "[8]; V. or VI. period", "value": "0,0"}, {"measurement": "Prozentsatz der Sterilität", "setting": "[8]; V. or VI. period", "value": 100, "unit": "%"}, {"measurement": "Prozentsatz des Ansetzens bei freier Bestäubung", "setting": "[8]; control = 100", "value": "89,0%"}]}
{"molecule": "OCC(O)COc1ccc(Cl)cc1Cl", "note": "(centres unmarked) [Beispiel 6, 3-(2',4'-Dichlorphenoxy)-propandiol-I,2]", "values": [{"measurement": "Anzahl von Körnern der Ähre bei freier Bestäubung", "setting": "[2]; [11]", "value": "35,0"}, {"measurement": "Anzahl von Körnern der Ähre im Isolator", "setting": "[2]; [11]", "value": "0,8"}, {"measurement": "percent sterility at 20000 g/ha", "setting": "[2]; [12]", "value": 97.9, "unit": "%"}, {"measurement": "response vs control in vivo at 20000 g/ha", "setting": "[2]", "value": 86.4, "unit": "%"}, {"measurement": "Anzahl von Körnern der Ähre bei freier Bestäubung", "setting": "[9]; V. period", "value": "26,0"}, {"measurement": "Anzahl von Körnern der Ähre im Isolator", "setting": "[9]; V. period", "value": "0,1"}, {"measurement": "percent sterility at 10000 g/ha", "setting": "[9]; V. period, read-out: Prozentsatz der Sterilität", "value": 99.9, "unit": "%"}, {"measurement": "response vs control in vivo at 10000 g/ha", "setting": "[9]; control = 100, read-out: Prozentsatz des Ansetzens bei freier Bestäubung", "value": 94.5, "unit": "%"}, {"measurement": "Anzahl von Körnern der Ähre bei freier Bestäubung", "setting": "[10]; V. and VI. periods", "value": "41,6"}, {"measurement": "Anzahl von Körnern der Ähre im Isolator", "setting": "[10]; V. and VI. periods", "value": "0,0"}, {"measurement": "Prozentsatz der Sterilität", "setting": "[10]; V. and VI. periods", "value": 100, "unit": "%"}, {"measurement": "Prozentsatz des Ansetzens bei freier Bestäubung", "setting": "[10]; control = 100", "value": "90,2%"}]}
{"molecule": "Nc1ccc(O)c(C(=O)O)c1", "note": "[Beispiel 51, Äthanolaminsalz der 5-Aminosalizylsäure]", "values": [{"measurement": "Anzahl von Körnern der Ähre bei freier Bestäubung", "setting": "[4]; Chulpan, V. or VI. period", "value": "55,6"}, {"measurement": "Anzahl von Körnern der Ähre im Isolator", "setting": "[4]; Chulpan, V. or VI. period", "value": "2,1"}, {"measurement": "percent sterility at 10000 g/ha", "setting": "[4]; Chulpan, V. or VI. period, read-out: Prozentsatz der Sterilität", "value": 96, "unit": "%"}, {"measurement": "response vs control in vivo at 10000 g/ha", "setting": "[4]; control = 100", "value": 92.8, "unit": "%"}, {"measurement": "Anzahl von Körnern der Ähre im Isolator", "setting": "[5]; V. or VI. period", "value": "I,I"}, {"measurement": "percent sterility at 10000 g/ha", "setting": "[5]; V. or VI. period, read-out: Prozentsatz der Sterilität", "value": 97.3, "unit": "%"}, {"measurement": "response vs control in vivo at 10000 g/ha", "setting": "[5]", "value": 99.5, "unit": "%"}, {"measurement": "LD50", "setting": "[3]; LD50, weisse Mäuse", "value": 2400, "unit": "mg/kg"}]}
